Measurements reported in ChEMBL document CHEMBL1129113, “Adipoyl-6-aminopenicillanic acid is a substrate for deacetoxycephalosporin C synthase (DAOCS)” (Bioorg Med Chem Lett, 1996).

Tests used:
Escherichia coli [1] = assay: Enzyme catalytic constant (Kcat) against Deacetoxycephalosporin C synthase
Escherichia coli [2] = assay: Enzyme kinetic constant (Km) against Deacetoxycephalosporin C synthase

SMILES | k cat (Escherichia coli [1]) | Km (Escherichia coli [2])
CC1(C)S[C@@H]2[C@H](NC(=O)CCCCC(=O)O)C(=O)N2[C@H]1C(=O)O | 0.071 s⁻¹ | 1.22 mM
CC1(C)S[C@@H]2[C@H](NC(=O)CCC[C@@H](N)C(=O)O)C(=O)N2[C@H]1C(=O)O | 0.442 s⁻¹ | 10.3 mM
